{"source": "patent US8563511B2", "about": "“Treatment of pulmonary hypertension using an agent that inhibits a tissue factor pathway” (University of Rochester, priority 2004, dated 2013)", "key": {"Male Sprague Dawley rats": {"test_system": "Male Sprague Dawley rats", "assay": "Induction of PAH by MCT after sham surgery or pneumonectomy in young rats", "assay_type": "in vivo, rat", "details": "for pulmonary pressure (RVSP, mean PA): FIG. 1", "procedure": "All animal studies were approved by the IACUC at the University of Rochester prior to the initiation of any animal experiments. Male Sprague Dawley rats weighing between 200 and 250 g were shaved and then endotracheally intubated with an 18 G angiocatheter after anesthesia with ketamine and xylazine (70 mg/kg ketamine and 50 mg/kg xylazine delivered intraperitoneal in 0.9% saline). Flunixin was administered 0.1 mg/kg SQ at the beginning of the case to provide 24 hours postoperative analgesia. Animals were ventilated (respiratory rate 70-90, adjusted while monitoring the animal to prevent spontaneous respiratory effort) at 10-12 cc/kg (Harvard Apparatus) and the left chest was prepared with Betadine scrub. The fourth or fifth intercostal space was identified, and an incision was made with care to avoid lung damage while ventilation was briefly interrupted. A rib retractor was used to expose the thoracic cavity, and the lung was lifted gently to expose the hilar structures. Two ligaclips (Ektacon LS200, Johnson & Johnson) were applied proximally before the left lung was cut at the distal hilar structure. A polyethylene tube with holes at the end and cut into the sides was inserted through the sixth intercostal space and laid in the thoracic cavity where the left lung had been. Two absorbable sutures were used to approximate the ribs, and then the muscles and subcutaneous tissue were approximated with an additional layer of sutures. Care was taken to carefully seal the thoracostomy tube with tissue so that the hole would close spontaneously when the thoracostomy tube was removed. Suction was applied to the tubing at the earliest possible time once a seal had been achieved (sometimes before the subcutaneous tissues were closed). Antisedan (Orion) was administered 0.2 mg/kg IM, and the skin was closed with 9 mm Autoclips (Stoelting). The animal was taken off the ventilator and monitored for spontaneous respirations while suction was applied to the thoracostomy tube. The rat was required to make significant respiratory effort and begin to right itself on the table before the endotracheal and thoracostomy tubes were removed. […] A 30 to 40% mortality is routinely encountered in the 24 hour perioperative period. For the sham surgery, an incision was made to the chest wall. With great care, ventilation was stopped, the chest was listed with forceps, and a small incision was made in the fourth or fifth intercostal space. If there was any evidence for lung damage, the case was converted to a pneumonectomy. A smaller polyethylene tube was inserted through the same hole and laid between the lung and the chest wall. The ribs were approximated with one or two sutures as appropriate. The remainder of the procedure was identical. The animal was ventilated for several minutes after the chest was closed but before sedation was reversed to make sure that total time under anesthesia was approximately the same as in pneumonectomy cases.\n(§1) One week later, animals were given MCT (dissolved 60 mg/ml in DMSO) as a subcutaneous injection (vehicle animals were treated with the same volume of DMSO alone). They were monitored and allowed ordinary chow and water for 28 days (in the group of animals which were utilized to generate FIG. 2, two of the animals initially treated with pneumonectomy and MCT died spontaneously on days 18 and 23, so the remaining four animals were sacrificed at Day 24).\nExercise capacity was monitored 5 and 10 days after MCT treatment and then more frequently as the disease progressed. Rats were placed on a treadmill (Columbus Instruments) that stimulates them with a mild electric shock when they fail to run. Each assessment lasted for 16 min: 2 min. @ 10 m/min, 4 min @ 15 m/min, 5 min @ 20 m/min, and 5 min @ 25 m/min. The maximum distance run was 305 m. This procedure has been specifically approved by the local IACUC.\nInitially, a grid intensity of 70% maximum and frequency of 2 Hz was used. […]"}, "[1]": {"test_system": "Pneum/MCT rats (rat model of severe pulmonary arterial hypertension)", "assay": "Treatment of PAH in pneumonectomy + MCT young rat model", "assay_type": "in vivo", "details": "bosentan 100 mg/kg daily", "procedure": "All animal studies were approved by the IACUC at the University of Rochester prior to the initiation of any animal experiments. Male Sprague Dawley rats weighing between 200 and 250 g were shaved and then endotracheally intubated with an 18 G angiocatheter after anesthesia with ketamine and xylazine (70 mg/kg ketamine and 50 mg/kg xylazine delivered intraperitoneal in 0.9% saline). Flunixin was administered 0.1 mg/kg SQ at the beginning of the case to provide 24 hours postoperative analgesia. […] The animal was taken off the ventilator and monitored for spontaneous respirations while suction was applied to the thoracostomy tube. […]\nas §1\nExercise capacity was monitored 5 and 10 days after MCT treatment and then more frequently as the disease progressed. […]"}, "[2]": {"test_system": "patients with pulmonary hypertension", "details": "cited from earlier work"}}, "data": [{"compound": "C[C@H]1C(=O)O[C@@H]2CCN3CC=C(COC(=O)[C@](C)(O)[C@]1(C)O)[C@H]23", "note": "[MCT, monocrotaline]", "values": [{"measurement": "(RV + S)/LV", "setting": "Male Sprague Dawley rats; MCT after pneumonectomy", "value": "1.8 ± 0.6"}, {"measurement": "(RV + S)/Weight", "setting": "Male Sprague Dawley rats; MCT after pneumonectomy", "value": "2.7 ± 0.3"}, {"measurement": "LV/Weight", "setting": "Male Sprague Dawley rats; MCT after pneumonectomy", "value": "1.6 ± 0.5"}, {"measurement": "pulmonary pressure (RVSP, mean PA)", "setting": "Male Sprague Dawley rats; MCT after pneumonectomy", "value": "near systemic elevations in pulmonary pressure"}, {"measurement": "(RV + S)/LV", "setting": "Male Sprague Dawley rats; MCT after sham surgery", "value": "1.20 ± 0.3"}, {"measurement": "(RV + S)/Weight", "setting": "Male Sprague Dawley rats; MCT after sham surgery", "value": "1.9 ± 0.4"}, {"measurement": "LV/Weight", "setting": "Male Sprague Dawley rats; MCT after sham surgery", "value": "1.6 ± 0.2"}, {"measurement": "pulmonary pressure (RVSP, mean PA)", "setting": "Male Sprague Dawley rats; MCT following sham surgery", "value": "modest PAH"}, {"measurement": "exercise capacity (16 min treadmill protocol)", "setting": "Male Sprague Dawley rats; Pneum/MCT rats, by day 17 after MCT", "value": "unable to complete the 16 min protocol"}, {"measurement": "exercise capacity (16 min treadmill protocol)", "setting": "Male Sprague Dawley rats; Sham/MCT rats", "value": "consistently completed the exercise protocol"}]}, {"compound": "COc1ccccc1Oc1c(NS(=O)(=O)c2ccc(C(C)(C)C)cc2)nc(-c2ncccn2)nc1OCCO", "note": "[bosentan]", "values": [{"measurement": "PA pressure", "setting": "[1]", "value": "only a modest elevation in PA pressure"}]}, {"compound": "CC(=O)CC(c1ccccc1)c1c(O)c2ccccc2oc1=O", "note": "(stereo not shown) [warfarin]", "values": [{"measurement": "survival", "setting": "[2]; Kawut et al., patients also on advanced therapies such as prostacyclin", "value": "survival benefit"}, {"measurement": "mortality at 5 years", "setting": "[2]; Rich et al., prospective observational trial", "value": "decreased mortality"}]}]}
